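Compound exposure: 48 hours, 5 concentrations, 96-well plates. GI50: concentration for 50% inhibition of growth. At the TGI there is no net growth.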
How the values were obtained:
Experiment in all cases: NCI-60 cell line screen, 48 h
786-0 renal = system: 786-0 renal
A498 renal = system: A498 renal
A549 NSCLC = system: A549 NSCLC
ACHN renal = system: ACHN renal
BT-549 breast = system: BT-549 breast
CCRF-CEM leukemia = system: CCRF-CEM leukemia
COLO 205 colon = system: COLO 205 colon
DU-145 prostate = system: DU-145 prostate
EKVX NSCLC = system: EKVX NSCLC
HCC-2998 colon = system: HCC-2998 colon
HCT-116 colon = system: HCT-116 colon
HCT-15 colon = system: HCT-15 colon
HL-60(TB) leukemia = system: HL-60(TB) leukemia
HOP-62 NSCLC = system: HOP-62 NSCLC
HOP-92 NSCLC = system: HOP-92 NSCLC
HS 578T breast = system: HS 578T breast
HT29 colon = system: HT29 colon
IGROV1 ovarian = system: IGROV1 ovarian
K-562 leukemia = system: K-562 leukemia
KM12 colon = system: KM12 colon
LOX IMVI melanoma = system: LOX IMVI melanoma
M14 melanoma = system: M14 melanoma
MALME-3M melanoma = system: MALME-3M melanoma
MCF7 breast = system: MCF7 breast
MDA-MB-231 breast = system: MDA-MB-231 breast
MDA-MB-435 = system: MDA-MB-435
MOLT-4 leukemia = system: MOLT-4 leukemia
NCI-H226 lung = system: NCI-H226 lung
NCI-H23 lung = system: NCI-H23 lung
NCI-H460 lung = system: NCI-H460 lung
NCI-H522 lung = system: NCI-H522 lung
NCI/ADR-RES ovarian = system: NCI/ADR-RES ovarian
OVCAR-3 ovarian = system: OVCAR-3 ovarian
OVCAR-4 ovarian = system: OVCAR-4 ovarian
OVCAR-5 ovarian = system: OVCAR-5 ovarian
OVCAR-8 ovarian = system: OVCAR-8 ovarian
PC-3 prostate = system: PC-3 prostate
RPMI-8226 leukemia = system: RPMI-8226 leukemia
RXF 393 renal = system: RXF 393 renal
SF-268 CNS = system: SF-268 CNS
SF-295 CNS = system: SF-295 CNS
SF-539 CNS = system: SF-539 CNS
SK-MEL-2 melanoma = system: SK-MEL-2 melanoma
SK-MEL-28 melanoma = system: SK-MEL-28 melanoma
SK-MEL-5 melanoma = system: SK-MEL-5 melanoma
SK-OV-3 ovarian = system: SK-OV-3 ovarian
SN12C renal = system: SN12C renal
SNB-19 CNS = system: SNB-19 CNS
SNB-75 CNS = system: SNB-75 CNS
SR leukemia = system: SR leukemia
SW-620 colon = system: SW-620 colon
T-47D breast = system: T-47D breast
TK-10 renal = system: TK-10 renal
U251 CNS = system: U251 CNS
UACC-257 melanoma = system: UACC-257 melanoma
UACC-62 melanoma = system: UACC-62 melanoma
UO-31 renal = system: UO-31 renal

C=C1C(=O)O[C@H]2[C@H]1CC/C(COC(=O)NCc1c[nH]c3ccccc13)=C\CC[C@@]1(C)O[C@@H]21
GI50 (786-0 renal): 1.78 µM | TGI (786-0 renal): 3.93 µM | GI50 (A498 renal): 11.1 µM | TGI (A498 renal): 23.2 µM | GI50 (A549 NSCLC): 12.5 µM | TGI (A549 NSCLC): 28.6 µM | GI50 (ACHN renal): 1.97 µM | TGI (ACHN renal): 7.86 µM | GI50 (BT-549 breast): 1.98 µM | TGI (BT-549 breast): 6.3 µM | GI50 (CCRF-CEM leukemia): 1.48 µM | TGI (CCRF-CEM leukemia): 8.27 µM | GI50 (COLO 205 colon): 1.81 µM | TGI (COLO 205 colon): 3.58 µM | GI50 (DU-145 prostate): 2.35 µM | TGI (DU-145 prostate): 10.7 µM | GI50 (EKVX NSCLC): 2.23 µM | TGI (EKVX NSCLC): 8.84 µM | GI50 (HCC-2998 colon): 6.41 µM | TGI (HCC-2998 colon): 19 µM | GI50 (HCT-116 colon): 1.53 µM | TGI (HCT-116 colon): 3.3 µM | GI50 (HCT-15 colon): 1.67 µM | TGI (HCT-15 colon): 4.19 µM | GI50 (HL-60(TB) leukemia): 1.54 µM | TGI (HL-60(TB) leukemia): 4.22 µM | GI50 (HOP-62 NSCLC): 11.2 µM | TGI (HOP-62 NSCLC): 23.7 µM | GI50 (HOP-92 NSCLC): 1.51 µM | TGI (HOP-92 NSCLC): 4.31 µM | GI50 (HS 578T breast): 10.3 µM | TGI (HS 578T breast): 43.9 µM | GI50 (HT29 colon): 3.1 µM | TGI (HT29 colon): 9.69 µM | GI50 (IGROV1 ovarian): 1.96 µM | TGI (IGROV1 ovarian): 11.6 µM | GI50 (K-562 leukemia): 1.82 µM | TGI (K-562 leukemia): 12.6 µM | GI50 (KM12 colon): 13.8 µM | TGI (KM12 colon): 30.7 µM | GI50 (LOX IMVI melanoma): 1.4 µM | TGI (LOX IMVI melanoma): 2.87 µM | GI50 (M14 melanoma): 1.91 µM | TGI (M14 melanoma): 5 µM | GI50 (MALME-3M melanoma): 2.02 µM | TGI (MALME-3M melanoma): 5.21 µM | GI50 (MCF7 breast): 1.5 µM | TGI (MCF7 breast): 4.39 µM | GI50 (MDA-MB-231 breast): 1.91 µM | TGI (MDA-MB-231 breast): 4.98 µM | GI50 (MDA-MB-435): 2.57 µM | TGI (MDA-MB-435): 11.8 µM | GI50 (MOLT-4 leukemia): 2.71 µM | TGI (MOLT-4 leukemia): 9.13 µM | GI50 (NCI-H226 lung): 2 µM | TGI (NCI-H226 lung): 5.55 µM | GI50 (NCI-H23 lung): 8.37 µM | TGI (NCI-H23 lung): 24.5 µM | GI50 (NCI-H460 lung): 8.14 µM | TGI (NCI-H460 lung): 23.1 µM | GI50 (NCI-H522 lung): 1.23 µM | TGI (NCI-H522 lung): 2.58 µM | GI50 (NCI/ADR-RES ovarian): 6.4 µM | TGI (NCI/ADR-RES ovarian): 23.1 µM | GI50 (OVCAR-3 ovarian): 1.71 µM | TGI (OVCAR-3 ovarian): 4.57 µM | GI50 (OVCAR-4 ovarian): 4.5 µM | TGI (OVCAR-4 ovarian): 18.6 µM | GI50 (OVCAR-5 ovarian): 3.63 µM | TGI (OVCAR-5 ovarian): 14.4 µM | GI50 (OVCAR-8 ovarian): 2.2 µM | TGI (OVCAR-8 ovarian): 6.99 µM | GI50 (PC-3 prostate): 5.16 µM | TGI (PC-3 prostate): 18.9 µM | GI50 (RPMI-8226 leukemia): 1.79 µM | TGI (RPMI-8226 leukemia): 6.14 µM | GI50 (RXF 393 renal): 1.24 µM | TGI (RXF 393 renal): 2.72 µM | GI50 (SF-268 CNS): 10.4 µM | TGI (SF-268 CNS): 22.6 µM | GI50 (SF-295 CNS): 12.1 µM | TGI (SF-295 CNS): 24.7 µM | GI50 (SF-539 CNS): 2.82 µM | TGI (SF-539 CNS): 10.4 µM | GI50 (SK-MEL-2 melanoma): 11.1 µM | TGI (SK-MEL-2 melanoma): 24.5 µM | GI50 (SK-MEL-28 melanoma): 2.65 µM | TGI (SK-MEL-28 melanoma): 8.99 µM | GI50 (SK-MEL-5 melanoma): 12.1 µM | TGI (SK-MEL-5 melanoma): 25 µM | GI50 (SK-OV-3 ovarian): 13.7 µM | TGI (SK-OV-3 ovarian): 26.6 µM | GI50 (SN12C renal): 1.77 µM | TGI (SN12C renal): 5.47 µM | GI50 (SNB-19 CNS): 10.6 µM | TGI (SNB-19 CNS): 22.8 µM | GI50 (SNB-75 CNS): 9.86 µM | TGI (SNB-75 CNS): 21.7 µM | GI50 (SR leukemia): 2.22 µM | TGI (SR leukemia): 8.35 µM | GI50 (SW-620 colon): 1.7 µM | TGI (SW-620 colon): 4.28 µM | GI50 (T-47D breast): 1.57 µM | TGI (T-47D breast): 4.11 µM | GI50 (TK-10 renal): 2.55 µM | TGI (TK-10 renal): 5.65 µM | GI50 (U251 CNS): 11.1 µM | TGI (U251 CNS): 23.1 µM | GI50 (UACC-257 melanoma): 4.25 µM | TGI (UACC-257 melanoma): 15.9 µM | GI50 (UACC-62 melanoma): 1.72 µM | TGI (UACC-62 melanoma): 3.95 µM | GI50 (UO-31 renal): 1.34 µM | TGI (UO-31 renal): 2.68 µM
